From ChEMBL document CHEMBL4651402, “Screening of ~5500 FDA-approved drugs and clinical candidates for anti-SARS-CoV-2 activity” (2021)

Test system: SARS-CoV-2
Experiment: microbe, parasite or virus in culture
Details: Severe acute respiratory syndrome coronavirus 2, Vero C1008, 48 h

Compound	IC50 [µM]	IC50 (read-out: pIC50 (converted)) [µM]
CC1=C(CC(=O)O)c2cc(F)ccc2/C1=C\c1ccc([S+](C)[O-])cc1 (configuration not stated)	> 20	> 20
CN(C)CCC[C@@]1(c2ccc(F)cc2)OCc2cc(C#N)ccc21 [ESCITALOPRAM]	> 20	> 20
CC1CC2(C)C3CCC4(C)C(O)CCC4C3CC[C@H]2CC1=O (some centres not stated)	> 20	> 20
NC(N)=O [UREA]	> 20	> 20
CC1(C)N=C(N)N=C(N)N1c1ccc(Cl)cc1 [CYCLOGUANIL]	> 20	> 20
CNC1(C)C2CCC(C2)C1(C)C (configuration not stated) [MECAMYLAMINE]	> 20	> 20
CCCCCCCCCCCCCCCC(=O)OCC(NC(=O)C(Cl)Cl)C(O)c1ccc([N+](=O)[O-])cc1 (configuration not stated)	> 20	> 20
CC(=O)OCC(=O)C1CCC2C3CC[C@H]4CC(O)CCC4(C)C3C(=O)CC12C (some centres not stated)	> 20	> 20
CCN(CC)CCOC(=O)C(O)(c1ccccc1)c1ccccc1 [BENACTYZINE]	> 20	> 20
NC(=O)CN1CCCC1=O	> 20	> 20
CCOc1ccccc1C(N)=O [ETHENZAMIDE]	> 20	> 20
COc1ccc2c(c1)C(=O)N(CCc1ccc(S(=O)(=O)NC(=O)NC3CCCCC3)cc1)C(=O)C2(C)C [GLIQUIDONE]	> 20	> 20
N[C@H](Cc1c[nH]cn1)C(=O)O [D-HISTIDINE]	> 20	> 20
C[C@H]1CCC[C@H](C)N1CCCCNC(=O)C(Oc1ccccc1)c1ccccc1 (some centres not stated)	> 20	> 20
O=C1OC(CN2CCOCC2)CN1/N=C/c1ccc([N+](=O)[O-])o1 (configuration not stated) [FURALTADONE]	> 20	> 20
O=S(=O)(O)CCN1CCN(CCO)CC1	> 20	> 20
CCNC(C)Cc1cccc(C(F)(F)F)c1 (configuration not stated) [FENFLURAMINE]	> 20	> 20
CC(=O)OCC(=O)[C@@]1(O)CCC2C3C[C@H](C)C4=CC(=O)C=CC4(C)C3C(O)CC21C (some centres not stated)	> 20	> 20

Compound	IC50 [µM]	IC50 (read-out: pIC50 (converted)) [µM]
NC(=O)NCCC[C@H](N)C(=O)O [L-CITRULLINE]	> 20	> 20
CN[C@@H]1[C@H](O[C@H]2[C@H](O[C@@H]3[C@@H](O)[C@H](O)[C@@H](NC(=N)N)[C@H](O)[C@H]3NC(=N)N)O[C@@H](C)[C@]2(O)CO)O[C@@H](CO)[C@H](O)[C@H]1O	> 20	> 20
O=C(O)c1cccc2c1Nc1cc(C(F)(F)F)ccc1S2 [FLUTIAZIN]	> 20	> 20
CC(C)Cc1sc(-c2nccs2)nc1C(=O)NCc1ccc(F)cc1	> 20	> 20
O=C(CCCN1CCC(O)(c2ccc(Br)cc2)CC1)c1ccc(F)cc1 [BROMPERIDOL]	> 20	> 20
FC(F)c1nc2ccccc2n1-c1nc(N2CCOCC2)nc(N2CCOCC2)n1 [ZSTK-474]	> 20	> 20
CCN(CC)CCOC(=O)C(c1ccccc1)C1CCCCC1 (configuration not stated) [DROFENINE]	> 20	> 20
N=C(NCCCCCCNC(=N)NC(=N)Nc1ccc(Cl)cc1)NC(=N)Nc1ccc(Cl)cc1 [CHLORHEXIDINE]	> 20	> 20
CN(CCOc1ccc(CC2SC(=O)NC2=O)cc1)c1ccccn1 (configuration not stated) [ROSIGLITAZONE]	> 20	> 20
[2H]C([2H])([2H])OCCCN1CCC(NC(=O)c2cc(Cl)c(N)c3c2OCC3)CC1	> 20	> 20
CC(C)c1nc(CN(C)C(=O)N[C@H](C(=O)N[C@@H](Cc2ccccc2)C[C@H](O)[C@H](Cc2ccccc2)NC(=O)OCc2cncs2)C(C)C)cs1 [RITONAVIR]	> 50.1	> 50.1
CSCC[C@H](N)C(=O)N[C@@]1(C(=O)O)CS(=O)(=O)[C@H]2[C@H](C(=O)O)[C@H]21 [POMAGLUMETAD METHIONIL ANHYDROUS]	> 20	> 20
CN(C)C[C@H]1CCCC[C@]1(O)c1cccc(O)c1 [O-DESMETHYL TRAMADOL]	> 100	> 100
O=C(O)[C@H]1C2CCC(CC2)[C@@H]1Nc1nc(-c2c[nH]c3ncc(F)cc23)ncc1F [PIMODIVIR]	> 20	> 20
Cc1nc2ccccc2n1Cc1ccc(Cl)cc1 [CHLORMIDAZOLE]	> 20	> 20
CN1CCN(CC(=O)N2c3ccccc3C(=O)Nc3cccnc32)CC1 [PIRENZEPINE]	> 20	> 20
CCCCC1(CCCC)CN(c2ccccc2)c2cc(SC)c(OCC(=O)N[C@@H](C(=O)NCC(=O)O)c3ccccc3)cc2S(=O)(=O)C1 [ELOBIXIBAT]	> 20	> 20
OC(Cn1ccnc1)c1ccc(CCc2ccccc2)cc1 (configuration not stated) [DENZIMOL]	> 20	> 20
